Patent US8883776B2, “Cycloalkyloxy- and heterocycloalkyloxypyridine compounds as modulators of the histamine H3 receptor” (Janssen Pharmaceutica N.V., priority 2007, dated 2014)
Where a name gives a salt, the structure may show the parent alone.

Key:
[1] = molecular target: T1, cloned human H3 receptors (Homo sapiens, UniProt Q9Y5N1); assay: H3 Receptor Binding (Human); details: cloned human H3 receptors stably expressed in SK-N-MC cells; average of results
T1 construct: expressed in transfected cells
Method: H3 Receptor Binding (Human)
Binding of compounds to the cloned human H3 receptors, stably expressed in SK-N-MC cells, was performed as described by Barbier, A. J. et al. (Br. J. Pharmacol. 2004, 143(5), 649-661).

rat H3 receptor [2] = molecular target: T2, rat H3 receptor (Rattus norvegicus, UniProt Q9QYN8); assay: H3 Receptor Binding (Rat), rat brain membranes, N-[3H]-α-methylhistamine; details: rat brain without cerebellum membranes; 0.8 nM N-[3H]-α-methylhistamine; average of results
Method: H3 Receptor Binding (Rat)
A rat brain without cerebellum (Zivic Laboratories Inc., Pittsburgh, Pa.) was homogenized in 50 mM Tris-HCl/5 mM EDTA and centrifuged at 1,000 rpm for 5 min. The supernatant was removed and recentrifuged at 15,000 rpm for 30 min. Pellets were rehomogenized in 50 mM Tris/5 mM EDTA (pH 7.4). Membranes were incubated with 0.8 nM N—[^3H]-α-methylhistamine plus/minus test compounds for 60 min at 25° C. and harvested by rapid filtration over GF/C glass fiber filters (pretreated with 0.3% polyethylenimine) followed by four washes with buffer. Nonspecific binding was defined in the presence of 100 μM histamine. Inhibitory concentration (responsible for 50% inhibition of maximal effect, IC50) values were determined by a single site curve-fitting program (GraphPad, San Diego, Calif.) and converted to Ki values based on a N—[^3H]-α-methylhistamine dissociation constant (Kd) of 0.8 nM.

human H3 receptor = human H3 receptor (Homo sapiens, UniProt Q9Y5N1); assay: Cyclic AMP Accumulation, SK-N-MC cells expressing reporter construct and human H3 receptor; assay type: cell-based; details: cAMP accumulation, average of results, read-out: Human pA2 (converted)
Source text: (§1) Sublines of SK-N-MC cells were created that expressed a reporter construct and either the human or rat H3 receptor. The pA2 values were obtained as described by Barbier et al. (2004).

rat H3 receptor [3] = molecular target: T2, rat H3 receptor; assay: Cyclic AMP Accumulation, SK-N-MC cells expressing reporter construct and rat H3 receptor; assay type: cell-based; design: expressed in transfected cells; host or cells: SK-N-MC sublines with reporter construct; details: cAMP accumulation, average of results, read-out: Rat pA2 (converted)
Source text: as §1

T2 sequence (Q9QYN8 whole entry): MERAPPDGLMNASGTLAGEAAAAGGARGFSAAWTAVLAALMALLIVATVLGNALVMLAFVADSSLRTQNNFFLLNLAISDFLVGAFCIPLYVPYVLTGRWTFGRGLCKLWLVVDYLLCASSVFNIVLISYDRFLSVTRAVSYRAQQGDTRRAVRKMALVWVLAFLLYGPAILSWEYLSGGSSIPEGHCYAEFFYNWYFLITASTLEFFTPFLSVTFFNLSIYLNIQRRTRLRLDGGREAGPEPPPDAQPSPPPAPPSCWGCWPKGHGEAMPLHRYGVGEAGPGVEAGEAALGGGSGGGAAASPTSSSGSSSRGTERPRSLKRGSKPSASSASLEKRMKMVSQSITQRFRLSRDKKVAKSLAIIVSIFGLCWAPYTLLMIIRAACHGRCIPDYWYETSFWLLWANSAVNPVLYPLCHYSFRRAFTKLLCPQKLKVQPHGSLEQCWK
Chain of human H3 receptor (Q9Y5N1 whole entry): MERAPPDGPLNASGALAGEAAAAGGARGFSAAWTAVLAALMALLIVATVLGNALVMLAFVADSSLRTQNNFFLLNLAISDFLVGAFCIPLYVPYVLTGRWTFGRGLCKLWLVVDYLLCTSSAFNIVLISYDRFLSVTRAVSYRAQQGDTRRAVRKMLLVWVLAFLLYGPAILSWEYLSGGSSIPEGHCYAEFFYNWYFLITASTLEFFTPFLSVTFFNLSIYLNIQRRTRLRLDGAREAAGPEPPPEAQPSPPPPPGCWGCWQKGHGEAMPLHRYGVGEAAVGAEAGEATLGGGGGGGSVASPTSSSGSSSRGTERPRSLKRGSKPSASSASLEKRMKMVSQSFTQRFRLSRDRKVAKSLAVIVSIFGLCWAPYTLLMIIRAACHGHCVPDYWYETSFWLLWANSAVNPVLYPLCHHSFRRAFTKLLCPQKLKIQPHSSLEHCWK
T1 sequence (Q9Y5N1 whole entry): as above

Ki [1] [nM]	Ki (rat H3 receptor [2]) [nM]	Kb (human H3 receptor) [nM]	Kb (rat H3 receptor [3]) [nM]	Compound
104				CC(C)N1CCN(C(=O)c2ccc(OC3CCOC3)nc2)CC1 (stereo not drawn) [Example 1, (4-isopropyl-piperazin-1-yl)-[6-(tetrahydro-furan-3-yloxy)-pyridin-3-yl]-methanone hydrochloride salt]
9				CC(C)N1CCCN(C(=O)c2ccc(OC3CCOC3)nc2)CC1 (stereo not drawn) [Example 2, (4-Isopropyl-[1,4]diazepan-1-yl)-[6-(tetrahydro-furan-3-yloxy)-pyridin-3-yl]-methanone hydrochloride salt]
6.8				O=C(c1ccc(OC2CCOC2)nc1)N1CCCN(C2CC2)CC1 (stereo not drawn) [Example 3, (4-Cyclopropyl-[1,4]diazepan-1-yl)-[6-(tetrahydro-furan-3-yloxy)-pyridin-3-yl]-methanone]
1.3	58	0.331	14.5	O=C(c1ccc(OC2CCOC2)nc1)N1CCCN(C2CCC2)CC1 (stereo not drawn) [Example 4, (4-Cyclobutyl-[1,4]diazepan-1-yl)-[6-(tetrahydro-furan-3-yloxy)-pyridin-3-yl]-methanone]
5010				CC(C)N1CCN(C(=O)c2ccc(OCC3(C)COC3)nc2)CC1 [Example 5, (4-isopropyl-piperazin-1-yl)-[6-(3-methyl-oxetan-3-ylmethoxy)-pyridin-3-yl]-methanone hydrochloride salt]
37				CC(C)N1CCCN(C(=O)c2ccc(OCC3(C)COC3)nc2)CC1 [Example 6, (4-Isopropyl-[1,4]diazepan-1-yl)-[6-(3-methyl-oxetan-3-ylmethoxy)-pyridin-3-yl]-methanone hydrochloride salt]
1.1	44	0.49	4.79	O=C(c1ccc(OC2CCCC2)nc1)N1CCCN(C2CCC2)CC1 [Example 7, (4-Cyclobutyl-[1,4]diazepan-1-yl)-(6-cyclopentyloxy-pyridin-3-yl)-methanone]
0.8	17	1.05	9.77	O=C(c1ccc(OC2CCCCC2)nc1)N1CCCN(C2CCC2)CC1 [Example 8, (4-Cyclobutyl-[1,4]diazepan-1-yl)-(6-cyclohexyloxy-pyridin-3-yl)-methanone]
0.9	28	0.234	4.37	O=C(c1ccc(OC2CCOCC2)nc1)N1CCCN(C2CCC2)CC1 [Example 9, (4-Cyclobutyl-[1,4]diazepan-1-yl)-[6-(tetrahydro-pyran-4-yloxy)-pyridin-3-yl]-methanone]
21				N#Cc1nc(C(=O)N2CCCN(C3CC3)CC2)ccc1OC1CCOC1 (stereo not drawn) [Example 10, 6-(4-Cyclopropyl-[1,4]diazepane-1-carbonyl)-3-(tetrahydro-furan-3-yloxy)-pyridine-2-carbonitrile]
6				N#Cc1nc(C(=O)N2CCCN(C3CC3)CC2)ccc1OC1CCCC1 [Example 11, 3-Cyclopentyloxy-6-(4-cyclopropyl-[1,4]diazepane-1-carbonyl)-pyridine-2-carbonitrile]
2.2				N#Cc1nc(C(=O)N2CCCN(C3CC3)CC2)ccc1OC1CCCCC1 [Example 12, 3-Cyclohexyloxy-6-(4-cyclopropyl-[1,4]diazepane-1-carbonyl)-pyridine-2-carbonitrile]
